Structures are written as SMILES. Like-named read-outs stand apart in the source and are kept apart here.

For orientation: Km means the concentration of substrate that gives half-maximal velocity.

Test [1] deals with HsaCH37Rv (Mycobacterium tuberculosis, UniProt P9WNW7). The test is classed as biochemical, M. tuberculosis H37Rv. The note with it: for Km: cell extract, pH 8.0, 25 °C.
Test [2] deals with M tuberculosis HsaC (Mycobacterium tuberculosis, UniProt P9WNW7). Kind of test: Inhibition of cloned M. tuberculosis HsaC, spectroscopic assay. The class given is biochemical. The note with it: in a manner consistent with oxidation of the active site Fe(II).
In test [3] the target is HsaDH37Rv (Mycobacterium tuberculosis, UniProt P9WNH5). The class given is biochemical, M. tuberculosis H37Rv. The note with it: for Vmax / Km: substrate of HsaDH37Rv, standard error in parentheses; for Km: cell extract, pH 8.0, 25 °C.
Test [4] has as its system M. tuberculosis H37Rv. Kind of test: Growth of H37Rv on cholesterol or 4-AD as growth substrate. The class given is cell-based. The settings on record: for growth of H37Rv colonies on solid medium: substance as the sole organic substrate, no growth on control medium.
Test [5] deals with M. bovis Bacillus Calmette-Guerin (BCG). The test is classed as cell-based.
Setting [6] is: substrate of HsaCH37Rv, standard error in parentheses.

Chain of HsaCH37Rv (P9WNW7 whole entry, looked up): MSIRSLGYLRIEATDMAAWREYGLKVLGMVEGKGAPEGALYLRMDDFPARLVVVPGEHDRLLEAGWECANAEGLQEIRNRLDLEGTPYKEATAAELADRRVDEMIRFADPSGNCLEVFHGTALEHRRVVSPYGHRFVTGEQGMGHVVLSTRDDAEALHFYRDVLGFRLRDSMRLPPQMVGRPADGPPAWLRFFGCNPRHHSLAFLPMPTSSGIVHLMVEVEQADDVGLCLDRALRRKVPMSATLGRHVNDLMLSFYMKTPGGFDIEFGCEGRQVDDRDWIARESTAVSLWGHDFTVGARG
Chain of HsaDH37Rv (P9WNH5 whole entry, looked up): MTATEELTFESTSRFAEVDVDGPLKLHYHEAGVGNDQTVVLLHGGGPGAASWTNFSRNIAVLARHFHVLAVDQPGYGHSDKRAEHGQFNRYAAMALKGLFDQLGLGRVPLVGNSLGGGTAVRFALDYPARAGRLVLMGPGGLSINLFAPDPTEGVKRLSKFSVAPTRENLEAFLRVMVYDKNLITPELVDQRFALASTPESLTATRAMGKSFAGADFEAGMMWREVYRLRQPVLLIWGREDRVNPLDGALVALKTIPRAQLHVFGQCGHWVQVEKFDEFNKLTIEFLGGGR
Chain of M tuberculosis HsaC (P9WNW7 whole entry, looked up): as the sequence (P9WNW7 whole entry, looked up) above

As to `Cc1ccc(O)c(O)c1CC[C@@H]1C(=O)CC[C@]2(C)C(=O)CC[C@@H]12` [3,4-DHSA, 3,4-dihydroxy-9,10-seconandrost-1,3,5(10)-triene-9,17-dione], in test [1], the “apparent specificity of extradiol cleavage relative to DHB” value is reported as 44 fold. Further, the Vmax in test [1] (substrate of HsaCH37Rv, […], standard error in parentheses) was 12 (4) μM^s−1. In addition, in test [1] (setting [6]), the Km is 0.9 µM.

In the case of `Oc1cccc(Cl)c1O` [3CC, 3-chlorocatechol], the “inactivation of HsaC” value in test [2] is “inactivated HsaC”.

As to `C/C(=C\C=C(/O)C(=O)O)C(=O)CC[C@@H]1C(=O)CC[C@]2(C)C(=O)CC[C@@H]12` [4,9-DSHA, 4,5-9,10-diseco-3-hydroxy-5,9,17-trioxoandrosta-1(10),2-diene-4-oic acid], the “apparent specificity of hydrolysis relative to HOPDA” value in test [3] ([…], higher than for HOPDA) was determined as 34 fold. For the same compound, in test [3] ([…]), the Vmax is reported as 0.06 (0.02) μM^s−1. The Km in test [3] is 4 µM.

On to `C[C@]12CCC(=O)C=C1CC[C@@H]1[C@@H]2CC[C@]2(C)C(=O)CC[C@@H]12` [4-AD, 4-androstene-3,17-dione], for which the “growth of H37Rv colonies on solid medium” value in test [4] is recorded as “Colonies grew”.

Consider `Oc1cccc(-c2ccccc2)c1O` [DHB], for which the Vmax in test [1] is recorded as 2.5 (0.4) μM^s−1. The Michaelis-Menten constant (Km) in test [1] (setting [6]) was found to be 8.5 µM.

On to `O=C(O)C(O)=CC=CC(=O)c1ccccc1` [HOPDA, 2-hydroxy-6-oxo-6-phenylpentadienoate], for which the Vmax in test [3] ([…]) is given as 0.009 (0.003) μM^s−1. Moreover, in test [3], the Km worked out at 19 µM.

In the case of `CC(C)CCC[C@@H](C)[C@H]1CC[C@H]2[C@@H]3CC=C4C[C@@H](O)CC[C@]4(C)[C@H]3CC[C@]12C` [cholesterol], the “growth of H37Rv in liquid culture” value in test [4] (phospholipid vesicles containing cholesterol versus vesicles containing no cholesterol) is “grew faster”. For the same compound, the “growth of H37Rv colonies on solid medium” value in test [4] is given as “Colonies grew”. The “overall protein yield of BCG culture” value in test [5] (medium supplemented with 0.25 mM cholesterol (0 mM: 22+/−7)) was determined as 46 ± 9 µg/mL; in test [5] (medium supplemented with 0.5 mM cholesterol (0 mM: 22+/−7)) it was 70 ± 4 µg/mL.

Values taken from patent publication US20100041631A1 (priority 2006, published 2010).
